Laboratory results from ChEMBL document CHEMBL1130944, “Exploring structure-activity relationships around the phosphomannose isomerase inhibitor AF14049 via combinatorial synthesis” (Bioorg Med Chem Lett, 1998).
Values after ≈ are worked out from the molar mass of the structure shown.

Tests used:
[1] = biological target: T1, Mannose-6-phosphate isomerase (Candida albicans (strain SC5314 / ATCC MYA-2876) (Yeast), UniProt P34948); experiment: Inhibition of phosphomannose isomerase enzyme of Candida albicans (CaPMI)
T1 sequence (P34948 whole entry): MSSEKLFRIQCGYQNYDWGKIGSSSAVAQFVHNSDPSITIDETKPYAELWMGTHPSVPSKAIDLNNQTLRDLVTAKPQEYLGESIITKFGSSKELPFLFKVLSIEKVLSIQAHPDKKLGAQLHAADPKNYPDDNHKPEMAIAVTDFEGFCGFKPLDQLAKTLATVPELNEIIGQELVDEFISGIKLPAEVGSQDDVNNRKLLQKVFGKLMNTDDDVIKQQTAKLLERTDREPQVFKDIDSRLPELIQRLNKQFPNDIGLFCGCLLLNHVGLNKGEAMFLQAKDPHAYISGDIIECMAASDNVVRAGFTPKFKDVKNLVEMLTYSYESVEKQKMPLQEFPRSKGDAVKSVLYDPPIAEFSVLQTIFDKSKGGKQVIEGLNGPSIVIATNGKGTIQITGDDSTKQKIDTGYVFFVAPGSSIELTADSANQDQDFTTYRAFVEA

[2] = biological target: Mannose-6-phosphate isomerase (Saccharomyces cerevisiae) (UniProt P29952); experiment: Compound was evaluated for the inhibition of yeast phosphomannose isomerase (PMI) at a concentration of 300 uM; inactive
Mannose-6-phosphate isomerase (Saccharomyces cerevisiae), sequence (P29952 whole entry, looked up): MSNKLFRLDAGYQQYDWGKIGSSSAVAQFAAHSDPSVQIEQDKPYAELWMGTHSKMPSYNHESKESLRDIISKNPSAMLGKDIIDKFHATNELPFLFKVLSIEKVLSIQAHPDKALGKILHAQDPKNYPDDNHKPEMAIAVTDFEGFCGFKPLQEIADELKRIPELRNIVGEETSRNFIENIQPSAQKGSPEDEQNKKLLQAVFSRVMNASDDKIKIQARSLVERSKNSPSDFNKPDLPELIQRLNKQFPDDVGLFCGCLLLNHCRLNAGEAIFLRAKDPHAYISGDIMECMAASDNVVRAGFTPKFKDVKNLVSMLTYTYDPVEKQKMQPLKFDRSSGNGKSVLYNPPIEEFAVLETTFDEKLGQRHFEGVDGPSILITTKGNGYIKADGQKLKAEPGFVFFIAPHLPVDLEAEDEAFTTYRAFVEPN

Candida albicans = experiment: Compound was evaluated for the minimum inhibitory concentration against Candida albicans; type: functional
Saccharomyces cerevisiae [3] = experiment: Compound was evaluated for the minimum inhibitory concentration against Saccharomyces cerevisiae; type: functional
[4] = biological target: T2, Mannose-6-phosphate isomerase (Homo sapiens, UniProt P34949); experiment: Compound was evaluated for the inhibition constant against human phosphomannose isomerase (huPMI)
T2 sequence (P34949 whole entry): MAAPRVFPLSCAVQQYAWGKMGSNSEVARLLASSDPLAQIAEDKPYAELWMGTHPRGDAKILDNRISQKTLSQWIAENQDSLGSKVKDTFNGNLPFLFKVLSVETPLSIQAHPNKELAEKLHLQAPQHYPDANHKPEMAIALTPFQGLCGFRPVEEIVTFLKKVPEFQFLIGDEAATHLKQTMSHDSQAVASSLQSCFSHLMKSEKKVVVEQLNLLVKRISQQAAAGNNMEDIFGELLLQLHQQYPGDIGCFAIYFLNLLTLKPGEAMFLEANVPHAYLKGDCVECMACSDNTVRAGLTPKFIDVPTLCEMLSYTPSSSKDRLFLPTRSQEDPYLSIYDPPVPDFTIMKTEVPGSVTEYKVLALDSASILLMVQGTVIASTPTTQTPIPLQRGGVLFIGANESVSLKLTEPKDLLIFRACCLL

Saccharomyces cerevisiae [5] = experiment: Compound was evaluated for the minimum inhibitory concentration against Invsc 1, a wild type strain of Saccharomyces cerevisiae; type: functional
[6] = biological target: T2, Mannose-6-phosphate isomerase; experiment: Compound was tested for inhibition of human phosphomannose isomerase (PMI)
[7] = Compound was tested for inhibition of porcine phosphomannose isomerase (PMI); set-up: species or system Sus scrofa

IC50 [1] [µM] | SMILES | further results
93 | NC(=O)C1(NC(=O)CCCOc2ccc(Cl)cc2Cl)CCc2ccccc2C1 (centres undefined) | –
50 | NC(=O)C1(NC(=O)CCCNc2ccc(Cl)cc2Cl)Cc2ccccc2C1 | –
140 | O=C(CCCOc1ccc(Cl)cc1Cl)NC1(CO)Cc2ccccc2C1 | –
> 200 | NC(=O)C1Cc2ccccc2CN1C(=O)CCCOc1ccc(Cl)cc1Cl (centres undefined) | –
– | O=C(CCCOc1ccc(Cl)cc1Cl)NC1(C(=O)NO)CCc2ccccc21 (centres undefined) | IC50 [2]: Not Active
50 | Cc1cc(OCCCC(=O)NC2(C(N)=O)Cc3ccccc3C2)ccc1Cl | –
– | O=C(CCCSc1ccc(Cl)c(Cl)c1)NC1(C(=O)NO)Cc2ccccc2C1 | MIC (Candida albicans): 100 µM (≈ 43.9 µg/mL); MIC (Saccharomyces cerevisiae [3]): 80 µM (≈ 35.1 µg/mL); Ki [4]: 26 µM; MIC (Saccharomyces cerevisiae [5]): 100 µM (≈ 43.9 µg/mL)
> 500 | O=C(CCCOc1ccc(Cl)cc1Cl)NC1(C(=O)O)Cc2ccccc2C1 | –
34 | COC(=O)C1(NC(=O)CCCOc2ccc(Cl)cc2Cl)Cc2ccccc2C1 | –
> 200 | COC(=O)C1(NC(=O)CCCOc2ccc(Cl)c(Cl)c2)Cc2cc3ccccc3cc2C1 | –
14 | NC(=O)C1(NC(=O)CCCSc2ccc(Cl)cc2Cl)Cc2ccccc2C1 | –
> 200 | COC(=O)C1(NC(=O)CCCOc2ccc(Cl)c(Cl)c2)Cc2ccc3ccccc3c2C1 (centres undefined) | –
21 | NC(=O)C1(NC(=O)CCCNc2ccc(Cl)c(Cl)c2)Cc2ccccc2C1 | –
30 | NC(=O)C1(NC(=O)CCCOc2cc(Cl)c(Cl)cc2Cl)Cc2ccccc2C1 | –
6 | NC(=O)C1(NC(=O)CCCSc2ccc(Cl)c(Cl)c2)Cc2ccccc2C1 | –
> 200 | NC(=O)C1(NC(=O)CCCOc2ccc(Cl)cc2Cl)CCCC1 | –
15 | NC(=O)C1(NC(=O)CCCOc2ccc(Cl)c(Cl)c2)Cc2ccccc2C1 | –
– | O=CC(O)C(O)COP(=O)(O)O (centres undefined) | IC50 [6]: 100 µM; IC50 [7]: 100 µM
39 | O=C(CCCOc1ccc(Cl)cc1Cl)NC1(C(=O)NO)Cc2ccccc2C1 | –
40 | NNC(=O)C1(NC(=O)CCCOc2ccc(Cl)cc2Cl)Cc2ccccc2C1 | –
> 200 | COC(=O)c1ccc2c(c1)CC(NC(=O)CCCOc1ccc(Cl)c(Cl)c1)(C(=O)OC)C2 (centres undefined) | –
34 | CNC(=O)C1(NC(=O)CCCOc2ccc(Cl)cc2Cl)Cc2ccccc2C1 | –
> 200 | O=C(CCCOc1ccc(Cl)cc1Cl)NC1Cc2ccccc2C1 | –
> 200 | CC(Cc1ccccc1)(NC(=O)CCCOc1ccc(Cl)cc1Cl)C(N)=O (centres undefined) | –
> 200 | NC(=O)C1(NC(=O)CCCOc2ccc(Cl)cc2Cl)CCc2ccccc21 (centres undefined) | –
